Results: PubChem BioAssay (NCI)
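In this assay, cells in 96-well plates receive the compound at five concentrations for 48 hours. Endpoints are linearly interpolated between the surrounding concentrations. At the GI50, growth is halved. At the TGI there is no net growth.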

Experiments:
Assay in all cases: NCI-60 cell line screen, 48 h
786-0 renal = test system: 786-0 renal
A498 renal = test system: A498 renal
A549 NSCLC = test system: A549 NSCLC
ACHN renal = test system: ACHN renal
BT-549 breast = test system: BT-549 breast
CAKI-1 renal = test system: CAKI-1 renal
CCRF-CEM leukemia = test system: CCRF-CEM leukemia
COLO 205 colon = test system: COLO 205 colon
DU-145 prostate = test system: DU-145 prostate
HCC-2998 colon = test system: HCC-2998 colon
HCT-116 colon = test system: HCT-116 colon
HCT-15 colon = test system: HCT-15 colon
HL-60(TB) leukemia = test system: HL-60(TB) leukemia
HOP-62 NSCLC = test system: HOP-62 NSCLC
HOP-92 NSCLC = test system: HOP-92 NSCLC
HS 578T breast = test system: HS 578T breast
HT29 colon = test system: HT29 colon
IGROV1 ovarian = test system: IGROV1 ovarian
K-562 leukemia = test system: K-562 leukemia
KM12 colon = test system: KM12 colon
LOX IMVI melanoma = test system: LOX IMVI melanoma
M14 melanoma = test system: M14 melanoma
MALME-3M melanoma = test system: MALME-3M melanoma
MCF7 breast = test system: MCF7 breast
MDA-MB-435 = test system: MDA-MB-435
MOLT-4 leukemia = test system: MOLT-4 leukemia
NCI-H226 lung = test system: NCI-H226 lung
NCI-H23 lung = test system: NCI-H23 lung
NCI-H460 lung = test system: NCI-H460 lung
NCI-H522 lung = test system: NCI-H522 lung
NCI/ADR-RES ovarian = test system: NCI/ADR-RES ovarian
OVCAR-3 ovarian = test system: OVCAR-3 ovarian
OVCAR-4 ovarian = test system: OVCAR-4 ovarian
OVCAR-5 ovarian = test system: OVCAR-5 ovarian
OVCAR-8 ovarian = test system: OVCAR-8 ovarian
PC-3 prostate = test system: PC-3 prostate
RPMI-8226 leukemia = test system: RPMI-8226 leukemia
RXF 393 renal = test system: RXF 393 renal
SF-268 CNS = test system: SF-268 CNS
SF-295 CNS = test system: SF-295 CNS
SF-539 CNS = test system: SF-539 CNS
SK-MEL-2 melanoma = test system: SK-MEL-2 melanoma
SK-MEL-28 melanoma = test system: SK-MEL-28 melanoma
SK-MEL-5 melanoma = test system: SK-MEL-5 melanoma
SK-OV-3 ovarian = test system: SK-OV-3 ovarian
SN12C renal = test system: SN12C renal
SNB-19 CNS = test system: SNB-19 CNS
SNB-75 CNS = test system: SNB-75 CNS
SR leukemia = test system: SR leukemia
SW-620 colon = test system: SW-620 colon
T-47D breast = test system: T-47D breast
TK-10 renal = test system: TK-10 renal
U251 CNS = test system: U251 CNS
UACC-257 melanoma = test system: UACC-257 melanoma
UACC-62 melanoma = test system: UACC-62 melanoma
UO-31 renal = test system: UO-31 renal

Cc1ccc2c(n1)C(=O)C(Cl)=C(Nc1cccc(C(F)(F)F)c1)C2=O
GI50 (786-0 renal): 1.8 µM
TGI (786-0 renal): 3.55 µM
GI50 (A498 renal): 13.8 µM
TGI (A498 renal): 27.9 µM
GI50 (A549 NSCLC): 20.1 µM
TGI (A549 NSCLC): 50 µM
GI50 (ACHN renal): 1.78 µM
TGI (ACHN renal): 3.31 µM
GI50 (BT-549 breast): 2.16 µM
TGI (BT-549 breast): 5.47 µM
GI50 (CAKI-1 renal): 1.58 µM
TGI (CAKI-1 renal): 3.01 µM
GI50 (CCRF-CEM leukemia): 1.46 µM
TGI (CCRF-CEM leukemia): 4.71 µM
GI50 (COLO 205 colon): 1.82 µM
TGI (COLO 205 colon): 3.78 µM
GI50 (DU-145 prostate): 1.8 µM
TGI (DU-145 prostate): 3.31 µM
GI50 (HCC-2998 colon): 2.6 µM
TGI (HCC-2998 colon): 6.48 µM
GI50 (HCT-116 colon): 1.51 µM
TGI (HCT-116 colon): 3.22 µM
GI50 (HCT-15 colon): 1.66 µM
TGI (HCT-15 colon): 3.55 µM
GI50 (HL-60(TB) leukemia): 1.5 µM
TGI (HL-60(TB) leukemia): 3.68 µM
GI50 (HOP-62 NSCLC): 17 µM
TGI (HOP-62 NSCLC): 31.8 µM
GI50 (HOP-92 NSCLC): 1.91 µM
TGI (HOP-92 NSCLC): 3.89 µM
GI50 (HS 578T breast): 15.1 µM
TGI (HS 578T breast): 85.6 µM
GI50 (HT29 colon): 2.6 µM
TGI (HT29 colon): 6.63 µM
GI50 (IGROV1 ovarian): 1.87 µM
TGI (IGROV1 ovarian): 3.6 µM
GI50 (K-562 leukemia): 0.31 µM
TGI (K-562 leukemia): 1.3 µM
GI50 (KM12 colon): 15.9 µM
TGI (KM12 colon): 32.3 µM
GI50 (LOX IMVI melanoma): 1.51 µM
TGI (LOX IMVI melanoma): 3.33 µM
GI50 (M14 melanoma): 1.92 µM
TGI (M14 melanoma): 4.39 µM
GI50 (MALME-3M melanoma): 1.79 µM
TGI (MALME-3M melanoma): 3.61 µM
GI50 (MCF7 breast): 1.85 µM
TGI (MCF7 breast): 4.66 µM
GI50 (MDA-MB-435): 1.95 µM
TGI (MDA-MB-435): 3.91 µM
GI50 (MOLT-4 leukemia): 1.69 µM
TGI (MOLT-4 leukemia): 5.38 µM
GI50 (NCI-H226 lung): 2.57 µM
TGI (NCI-H226 lung): 11.5 µM
GI50 (NCI-H23 lung): 1.82 µM
TGI (NCI-H23 lung): 4.67 µM
GI50 (NCI-H460 lung): 18.4 µM
TGI (NCI-H460 lung): 40.8 µM
GI50 (NCI-H522 lung): 2.03 µM
TGI (NCI-H522 lung): 5.12 µM
GI50 (NCI/ADR-RES ovarian): 2.65 µM
TGI (NCI/ADR-RES ovarian): 7.88 µM
GI50 (OVCAR-3 ovarian): 1.68 µM
TGI (OVCAR-3 ovarian): 3.11 µM
GI50 (OVCAR-4 ovarian): 1.56 µM
TGI (OVCAR-4 ovarian): 3.27 µM
GI50 (OVCAR-5 ovarian): 6.03 µM
TGI (OVCAR-5 ovarian): 22.1 µM
GI50 (OVCAR-8 ovarian): 2.68 µM
TGI (OVCAR-8 ovarian): 8.93 µM
GI50 (PC-3 prostate): 2.9 µM
TGI (PC-3 prostate): 11.5 µM
GI50 (RPMI-8226 leukemia): 1.92 µM
TGI (RPMI-8226 leukemia): 5.91 µM
GI50 (RXF 393 renal): 1.61 µM
TGI (RXF 393 renal): 3 µM
GI50 (SF-268 CNS): 4.76 µM
TGI (SF-268 CNS): 19.6 µM
GI50 (SF-295 CNS): 16.3 µM
TGI (SF-295 CNS): 31.2 µM
GI50 (SF-539 CNS): 3.18 µM
TGI (SF-539 CNS): 10.3 µM
GI50 (SK-MEL-2 melanoma): 2.38 µM
TGI (SK-MEL-2 melanoma): 5.73 µM
GI50 (SK-MEL-28 melanoma): 1.95 µM
TGI (SK-MEL-28 melanoma): 3.66 µM
GI50 (SK-MEL-5 melanoma): 2.75 µM
TGI (SK-MEL-5 melanoma): 7.84 µM
GI50 (SK-OV-3 ovarian): 14.2 µM
TGI (SK-OV-3 ovarian): 27.6 µM
GI50 (SN12C renal): 2.16 µM
TGI (SN12C renal): 5.66 µM
GI50 (SNB-19 CNS): 16 µM
TGI (SNB-19 CNS): 45.3 µM
GI50 (SNB-75 CNS): 13 µM
TGI (SNB-75 CNS): 27.4 µM
GI50 (SR leukemia): 1.56 µM
TGI (SR leukemia): 5 µM
GI50 (SW-620 colon): 2.05 µM
TGI (SW-620 colon): 4.89 µM
GI50 (T-47D breast): 1.93 µM
TGI (T-47D breast): 4.8 µM
GI50 (TK-10 renal): 2.01 µM
TGI (TK-10 renal): 3.52 µM
GI50 (U251 CNS): 6.45 µM
TGI (U251 CNS): 24.8 µM
GI50 (UACC-257 melanoma): 1.65 µM
TGI (UACC-257 melanoma): 3.24 µM
GI50 (UACC-62 melanoma): 4.28 µM
TGI (UACC-62 melanoma): 18.4 µM
GI50 (UO-31 renal): 1.54 µM
TGI (UO-31 renal): 2.95 µM
